Laboratory results published in patent US10183935B2, “Benzamide derivatives as modulators of the follicle stimulating hormone” (Merck Patent GmbH, priority 2012, dated 2019).

How the values were obtained:
[1] = molecular target: T1, FSHR (Homo sapiens, UniProt P23945); assay: EC50 of Cyclic AMP Production in CHO FSHR Cells+EC20 FSH (Assay A); type: cell-based; conditions: for EC50: cAMP HTRF
T1 construct: expressed in transfected cells; host or cells: CHO (Cho-FSHR-LUC-1-1-43)
T1 sequence (P23945 18-695): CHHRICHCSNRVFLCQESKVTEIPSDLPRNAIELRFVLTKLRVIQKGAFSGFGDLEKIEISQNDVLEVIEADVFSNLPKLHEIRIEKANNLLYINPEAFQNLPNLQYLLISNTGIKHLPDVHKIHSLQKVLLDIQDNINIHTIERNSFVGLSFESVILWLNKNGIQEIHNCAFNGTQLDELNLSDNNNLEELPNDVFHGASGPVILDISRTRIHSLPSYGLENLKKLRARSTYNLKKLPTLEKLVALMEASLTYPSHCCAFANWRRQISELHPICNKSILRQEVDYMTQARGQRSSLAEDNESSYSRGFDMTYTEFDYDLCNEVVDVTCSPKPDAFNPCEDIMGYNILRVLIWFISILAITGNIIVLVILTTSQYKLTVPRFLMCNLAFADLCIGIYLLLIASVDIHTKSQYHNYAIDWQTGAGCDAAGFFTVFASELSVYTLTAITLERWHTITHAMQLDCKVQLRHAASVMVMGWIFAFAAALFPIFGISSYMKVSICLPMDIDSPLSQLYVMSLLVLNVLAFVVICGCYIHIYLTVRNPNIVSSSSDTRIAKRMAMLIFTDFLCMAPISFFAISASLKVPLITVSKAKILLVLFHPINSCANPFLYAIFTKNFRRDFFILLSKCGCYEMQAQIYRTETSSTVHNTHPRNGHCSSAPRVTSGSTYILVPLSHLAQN
Method: Example 17: EC50 of Cyclic AMP Production in CHO FSHR Cells+EC20 FSH (Assay A)
2500 Cho-FSHR-LUC-1-1-43 cells were plated per well in 5 μl of phenol red free DMEM/F12+1% FBS. Cells were plated in 384 well, solid white low volume plates (Greiner 784075) by Multidrop. Cells were assayed by adding 100 μl of 2×EC20 FSH/IBMX in DMEM/F12+0.1% BSA) by Multidrop to 2 μl of test compound stamped in 384 well plates (compounds are diluted 1:50). The final FSH concentration was […], and the final IBMX concentration was 200 μM. The compound plate map was as follows: Column 1: 2 μl of DMSO; Column 2: 2 μl of DMSO; Columns 3-12 and 13-24: 2 μl of test compound, diluted 1:4 in 100% DMSO, or 2 μl of FSH, diluted 1:4 in DMEM/F12+0.1% BSA. The starting concentration for FSH was 50 nM (final concentration was 0.5 nM). Furthermore, Column 23 contained 2 μl of EC100 FSH reference (100×) (diluted in DMEM/F12+0.1% BSA) at a final concentration of 0.5 nM, and Column 24 contained 2 μl of 1 mM AS707664/2 reference compound 2.5 μl of compound+EC20 FSH mixture were transferred to cell plates (1:2 dilution into 5 μl of cell media) The plates were incubated at 37° C. for 1 h. 10 μl of mixed HTRF (CisBio #62AM4PEC) reagents were added per well and incubated at room temperature for 1 h. The plates were read on Envision using the cAMP HTRF—low volume 384 well protocol. The readout was the calculated fluorescence ratio (665 nm/620 nm). Values given in percent (%) indicate the percental effect (response) at a certain concentration of agonist relative to the maximum response of the FSH standard.

[2] = test system: Rat Granulosa; assay: Rat Granulosa EC50 FSH (Assay B); type: cell-based; conditions: rat granulosa cells
Method: Example 18: Rat Granulosa EC50 FSH (Assay B)
The assay was performed pursuant to the teaching of Yanofsky et al. (2006) Allosteric activation of the follicle-stimulating hormone (FSH) receptor by selective, nonpeptide agonists. JBC 281(19): 13226-13233, which is incorporated by reference in the disclosure of the invention.

`Cc1ccccc1N1CCN(c2c(NC(=O)c3coc(C4CC4)n3)cc(C(=O)NCCCN3CCCC3=O)cc2C(F)(F)F)CC1` gave an EC50 [1] of 1000 to 5000 nM.
Compound `Cc1ccccc1N1CCN(c2cc(Cl)c(C(=O)NCCCN3CCCC3=O)cc2NC(=O)c2coc(C3CC3)n2)CC1` has an EC50 [1] of less than 100 nM and an EC50 [2] of 100 to 1000 nM.
With `Cc1ccccc1N1CCN(c2c(NC(=O)c3ccco3)cc(C(=O)NCCCN3CCCC3=O)cc2C(F)(F)F)CC1` the Emax at 3 µM ([1]; @ 3 μM, read-out: Assay A: percental effect (response) relative to the maximum response of the FSH standard) was 39%.
With `COc1cc(N2CCN(c3ccccc3C)CC2)c(NC(=O)c2coc(C3CC3)n2)cc1C(=O)NCCCN1CCCC1=O` the EC50 [1] was less than 100 nM and the EC50 [2] was 1000 to 5000 nM.
Work on `Cc1ccccc1N1CCN(c2cc(O)c(C(=O)NCCCN3CCCC3=O)cc2NC(=O)c2coc(C3CC3)n2)CC1` yielded an EC50 [1] of 100 to 1000 nM.
With `Cc1ccccc1N1CCN(c2cc3c(cc2NC(=O)c2coc(C4CC4)n2)C(=O)N(CCCN2CCCC2=O)CC3)CC1` the EC50 [1] was less than 100 nM and the “Assay B: percental effect (response)” value ([2]; @ 5 μM) was 133% @ 5 μM.
Work on `Cc1ccccc1N1CCN(c2cc(F)c(C(=O)NCCCN3CCCC3=O)cc2NC(=O)c2coc(C3CC3)n2)CC1` yielded an EC50 [1] of 100 to 1000 nM.
Work on `Cc1ccc(C)c(N2CCN(c3cc(Cl)c(C(=O)NCCCN4CCCC4=O)cc3NC(=O)c3coc(C4CC4)n3)CC2)c1` yielded an EC50 [1] of 100 to 1000 nM.
Work on `Cc1ccc(C)c(N2CCN(c3cc(Cl)c(C(=O)NCc4cccc(CN(C)C)c4)cc3NC(=O)c3coc(C4CC4)n3)CC2)c1` yielded an EC50 [1] of 1000 to 5000 nM.
`Cc1ccccc1N1CCN(c2cc(C3CC3)c(C(=O)NCCCN3CCCC3=O)cc2NC(=O)c2ccco2)CC1` was tested, and the EC50 [1] was 1000 to 5000 nM.
Work on `Cc1ccccc1N1CCN(c2cc(C3CC3)c(C(=O)NCCCN3CCCC3=O)cc2NC(=O)c2coc(C3CC3)n2)CC1` yielded an EC50 [1] of 100 to 1000 nM.
In the case of `CCc1cc(N2CCN(c3ccccc3C)CC2)c(NC(=O)c2coc(C3CC3)n2)cc1C(=O)NCCCN1CCCC1=O`, the EC50 [1] is reported as 100 to 1000 nM and the EC50 [2] is reported as 100 to 1000 nM.
Work on `Cc1ccccc1N1CCN(c2cc(N(C)C)c(C(=O)NCCCN3CCCC3=O)cc2NC(=O)c2ccco2)CC1` yielded an EC50 [1] of 1000 to 5000 nM.
`Cc1ccccc1N1CCN(c2cc(N(C)C)c(C(=O)NCCCN3CCCC3=O)cc2NC(=O)c2coc(C3CC3)n2)CC1` showed an EC50 [1] of 100 to 1000 nM and an EC50 [2] of 100 to 1000 nM.
Work on `Cc1ccccc1N1CCN(c2cc(Cl)c(C(=O)NCc3cccc(CN(C)C)c3)cc2NC(=O)c2ccco2)CC1` yielded an EC50 [1] greater than 5000 nM.
Work on `COCCOc1cc(N2CCN(c3ccccc3C)CC2)c(NC(=O)c2coc(C3CC3)n2)cc1C(=O)NCCCN1CCCC1=O` yielded an EC50 [1] of 100 to 1000 nM and an EC50 [2] of 100 to 1000 nM.
For `CCOc1cc(N2CCN(c3ccccc3C)CC2)c(NC(=O)c2coc(C3CC3)n2)cc1C(=O)NCCCN1CCCC1=O`, the EC50 [1] was less than 100 nM and the EC50 [2] was 100 to 1000 nM.
Work on `CCOc1cc(N2CCN(c3ccccc3C)CC2)c(NC(=O)c2ccco2)cc1C(=O)NCCCN1CCCC1=O` yielded an EC50 [1] of 1000 to 5000 nM.
In the case of `Cc1ccc(C(=O)Nc2cc(C(=O)NCCCN3CCOC3=O)c(Cl)cc2N2CCN(c3ccccc3C)CC2)o1`, the EC50 [1] is reported as 100 to 1000 nM.
In the case of `Cc1ccccc1N1CCN(c2cc(Cl)c(C(=O)NCCCN3CCOC3=O)cc2NC(=O)c2coc(C3CC3)n2)CC1`, the EC50 [1] is reported as less than 100 nM and the EC50 [2] is reported as 100 to 1000 nM.
Work on `Cc1ccccc1N1CCN(c2cc3c(cc2NC(=O)c2ccco2)C(=O)N(Cc2cccc(CN(C)C)c2)CC3)CC1` yielded an EC50 [1] of 1000 to 5000 nM.
`Cc1ccc(F)cc1N1CCN(c2cc(Cl)c(C(=O)NCCCN3CCCC3=O)cc2NC(=O)c2coc(C3CC3)n2)CC1` was tested, and the EC50 [1] was 100 to 1000 nM.
`Cc1ccccc1N1CCN(c2cc(C(F)(F)F)c(C(=O)NCCCN3CCCC3=O)cc2NC(=O)c2coc(C3CC3)n2)CC1` showed an EC50 [1] of 100 to 1000 nM.
`Cc1cccnc1N1CCN(c2cc(Cl)c(C(=O)NCCCN3CCOC3=O)cc2NC(=O)c2coc(C3CC3)n2)CC1` gave an EC50 [1] of less than 100 nM and an EC50 [2] of 100 to 1000 nM.
With `Cc1ccc(F)cc1N1CCN(c2cc(Cl)c(C(=O)NCc3cccc(CN(C)C)c3)cc2NC(=O)c2ccco2)CC1` the EC50 [1] was 1000 to 5000 nM.
In the case of `Cc1ccccc1N1CCN(c2cc(Cl)c(C(=O)NCCCc3nnn(C)n3)cc2NC(=O)c2coc(C3CC3)n2)CC1`, the EC50 [1] is reported as 100 to 1000 nM and the EC50 [2] is reported as 1000 to 5000 nM.
`Cc1ccccc1N1CCN(c2cc(Cl)c(C(=O)N[C@H]3CCC[C@H](O)[C@@H]3O)cc2NC(=O)c2coc(C3CC3)n2)CC1` was tested, and the EC50 [1] was less than 100 nM and the EC50 [2] was 1000 to 5000 nM.
Work on `Cc1ccccc1N1CCN(c2cc(Cl)c(C(=O)NCCCc3nnnn3C)cc2NC(=O)c2coc(C3CC3)n2)CC1` yielded an EC50 [1] of 100 to 1000 nM and an EC50 [2] of 100 to 1000 nM.
With `Cc1ccccc1N1CCN(c2cc(Cl)c(C(=O)NCCC(C)(C)C(=O)O)cc2NC(=O)c2coc(C3CC3)n2)CC1` the EC50 [1] was 100 to 1000 nM and the “Assay B: percental effect (response)” value ([2]; @ 25 μM) was 46% @ 25 μM.
`Cc1ccccc1N1CCN(c2cc(F)c(C(=O)NCCCN3CCOC3=O)cc2NC(=O)c2coc(C3CC3)n2)CC1` was tested, and the EC50 [1] was 100 to 1000 nM and the EC50 [2] was 1000 to 5000 nM.
For `Cc1ccccc1N1CCN(c2cc(F)c(C(=O)N[C@H]3CCC[C@H](C(=O)OC(C)(C)C)C3)cc2NC(=O)c2coc(C3CC3)n2)CC1`, the EC50 [1] was 100 to 1000 nM and the “Assay B: percental effect (response)” value ([2]; concentration not given) was 39%.
`Cc1ccccc1N1CCN(c2cc3c(cc2NC(=O)c2coc(C4CC4)n2)C(=O)N(CCCN2CCOC2=O)CC3)CC1` was tested, and the EC50 [1] was less than 100 nM and the EC50 [2] was 100 to 1000 nM.
`Cc1ccccc1N1CCN(c2cc3c(cc2NC(=O)c2coc(C4CC4)n2)C(=O)N(C2CCC[C@H](O)[C@@H]2O)CC3)CC1` (stereo partly shown) gave an EC50 [2] of 1000 to 5000 nM.
Compound `Cc1ccccc1N1CCN(c2cc3c(cc2NC(=O)c2coc(C4CC4)n2)C(=O)N([C@H]2CCC[C@H](O)[C@@H]2O)CC3)CC1` has an EC50 [1] of 100 to 1000 nM.
With `Cc1ccccc1N1CCN(c2cc(F)c(C(=O)N[C@H]3CCC[C@@H](C(=O)OC(C)(C)C)C3)cc2NC(=O)c2coc(C3CC3)n2)CC1` the EC50 [1] was greater than 5000 nM and the “Assay B: percental effect (response)” value ([2]; concentration not given) was 11%.
Compound `Cc1ccccc1N1CCN(c2cc(F)c(C(=O)N[C@@H]3CCC[C@H](C(=O)OC(C)(C)C)C3)cc2NC(=O)c2coc(C3CC3)n2)CC1` has an EC50 [1] of 100 to 1000 nM and an EC50 [2] of less than 100 nM.
Compound `Cc1ccccc1N1CCN(c2cc(F)c(C(=O)N[C@H]3CCC[C@@H](C(=O)O)C3)cc2NC(=O)c2coc(C3CC3)n2)CC1` has an EC50 [1] of less than 100 nM.
Work on `COC(=O)[C@@H]1CCC[C@H](NC(=O)c2cc(NC(=O)c3coc(C4CC4)n3)c(N3CCN(c4ccccc4C)CC3)cc2F)C1` yielded an EC50 [1] of 100 to 1000 nM.
`Cc1ccccc1N1CCN(c2cc(F)c(C(=O)N[C@@H]3CCC[C@H](C(=O)O)C3)cc2NC(=O)c2coc(C3CC3)n2)CC1` was tested, and the EC50 [1] was less than 100 nM.
In the case of `Cc1ccccc1N1CCN(c2cc3ccn(CCCN4CCOC4=O)c(=O)c3cc2NC(=O)c2coc(C3CC3)n2)CC1`, the EC50 [1] is reported as less than 100 nM.
